In patent US9302999B2, “Substituted triazoles as herbicides” (E. I. DU PONT DE NEMOURS AND COMPANY, priority 2012, dated 2016):

Experiments:
Type in all cases: in vivo
[1] = system: ryegrass, Italian (Italian ryegrass, Lolium multiflorum); assay: Test C pre-/postemergence: ryegrass, Italian
Procedure, shortened: (§1)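 Visual injury scored 0–100 (100 = complete control) against untreated controls after 13–15 greenhouse days. Surfactant-containing solvent formulations applied either to soil after sowing (loam/sand) or over 1- to 4-leaf plants, 2–18 cm tall.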

[2] = system: morningglory (Ipomoea coccinea); assay: Test C pre-/postemergence: morningglory
Description: (§2) Seeds of plant species selected from blackgrass (Alopecurus myosuroides), bromegrass, downy (downy bromegrass, Bromus tectorum), foxtail, green (green foxtail, Setaria viridis), ryegrass, Italian (Italian ryegrass, Lolium multiflorum), winter wheat (Triticum aestivum), wild oat (Avena fatua), galium (catchweed bedstraw, Galium aparine), bermudagrass (Cynodon dactylon), surinam grass (Brachiaria decumbens), cocklebur (common cocklebur, Xanthium strumarium), corn (Zea mays), large crabgrass (Digitaria sanguinalis), woolly cupgrass (Eriochloa villosa), foxtail, giant (giant foxtail, Setaria faberii), goosegrass (Eleusine indica), johnsongrass (Sorghum halepense), kochia (Kochia scoparia), lambsquarters (Chenopodium album), morningglory (Ipomoea coccinea), nightshade (eastern black nightshade, Solanum ptycanthum), nutsedge, yellow (yellow nutsedge, Cyperus esculentus), pigweed (Amaranthus retroflexus), ragweed (common ragweed, Ambrosia elation), soybean (Glycine max), common (oilseed) sunflower (Helianthus annuus), Russian thistle (Salsola kali) and velvetleaf (Abutilon theophrasti) were planted into a blend of loam soil and sand and treated preemergence with test chemicals formulated in a non-phytotoxic solvent mixture which included a surfactant.
(§3) At the same time, plants selected from these crop and weed species and also barley (winter barley, Hordeum vulgare), canarygrass (Phalaris minor), chickweed (common chickweed, Stellaria media) windgrass (Apera spica-venti) and deadnettle (henbit deadnettle, Lamium amplexicaule) were planted in pots containing Redi-Earth® planting medium (Scotts Company, 14111 Scottslawn Road, Marysville, Ohio 43041) comprising spaghnum peat moss, vermiculite, wetting agent and starter nutrients and treated with postemergence applications of test chemicals formulated in the same manner. Plants ranged in height from 2 to 18 cm (1- to 4-leaf stage) for postemergence treatments.
(§4) Treated plants and controls were maintained in a greenhouse for 13 to 15 days, after which time all species were compared to controls and visually evaluated. Plant response ratings, summarized in Table C, are based on a scale of 0 to 100 where 0 is no effect and 100 is complete control. A dash (-) response means no test result.

[3] = system: velvetleaf (Abutilon theophrasti); assay: Test A pre-/postemergence: velvetleaf; conditions: for Velvetleaf plant response rating: Postemergence; for Plant response rating, Velvetleaf: Preemergence
Procedure, shortened: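 Pre: directed soil spray after planting in loam + sand. Post: same formulation (non-phytotoxic solvent + surfactant) on 1–2-leaf plants, 2–10 cm. Greenhouse ~10 d; visual injury 0–100 vs untreated.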

[4] = system: winter wheat (Triticum aestivum); assay: Test C pre-/postemergence: winter wheat
Procedure, shortened: as §1

[5] = system: large crabgrass (Digitaria sanguinalis); assay: Test C pre-/postemergence: large crabgrass
Procedure, shortened: as §1

[6] = system: blackgrass (Alopecurus myosuroides); assay: Test C pre-/postemergence: blackgrass
Procedure, shortened: as §1

corn (Zea mays) = assay: Test C pre-/postemergence: corn
Description: as §2, §3, §4

[7] = system: chickweed (common chickweed, Stellaria media); assay: Test C postemergence: chickweed
Description: as §3, §4

[8] = Postemergence, 31 g ai/ha, scale 0 to 100 (0 no effect, 100 complete control)
[9] = Postemergence, 62 g ai/ha, scale 0 to 100 (0 no effect, 100 complete control)
[10] = Postemergence, 125 g ai/ha, scale 0 to 100, 0 no effect, 100 complete control
[11] = Postemergence, 250 g ai/ha, scale 0 to 100
[12] = Preemergence, 31 g ai/ha, scale of 0 to 100, 0 is no effect, 100 is complete control
[13] = Preemergence, 62 g ai/ha, scale of 0 to 100, 0 is no effect, 100 is complete control
[14] = Preemergence, 125 g ai/ha, scale 0 to 100, 0 no effect, 100 complete control
[15] = Preemergence, 250 g ai/ha, scale 0 to 100, 0 no effect, 100 complete control
[16] = Preemergence, 62 g ai/ha, scale 0 to 100, 0 no effect, 100 complete control

In the case of Cc1nn(-c2ccc(C(F)(F)F)cn2)nc1Oc1ccnc(C(F)(F)F)c1 [Compound 23], the “Plant response rating, Ryegrass, Italian” value [1, 8] is reported as 5, the “Plant response rating, Ryegrass, Italian” value [1, 9] is reported as 10 and the “Plant response rating, Ryegrass, Italian” value [1, 10] is reported as 10. The “Plant response rating, Ryegrass, Italian” value [1, 11] was 15, the “Plant response rating, Ryegrass, Italian” value [1, 12] was 0 and the “Plant response rating, Ryegrass, Italian” value [1, 13] was 5. For the same molecule, the “Plant response rating, Ryegrass, Italian” value [1, 14] was 25, the “Plant response rating, Ryegrass, Italian” value [1, 15] was 70 and the “Plant response rating, Morningglory” value [2, 8] was 70. For the same molecule, the “Plant response rating, Morningglory” value [2, 9] was 70, the “Plant response rating, Morningglory” value [2, 10] was 90 and the “Plant response rating, Morningglory” value [2, 11] was 90. For the same molecule, the “Plant response rating, Morningglory” value [2, 12] was 20, the “Plant response rating, Morningglory” value [2, 13] was 20 and the “Plant response rating, Morningglory” value [2, 14] was 100. The “Plant response rating, Morningglory” value [2, 15] was 100, the “Velvetleaf plant response rating” value ([3]; 125 g ai/ha, 0 to 100 scale, 0 is no effect, 100 is complete control) was 90 and the “Velvetleaf plant response rating” value ([3]; 500 g ai/ha, visual rating on 0 to 100 scale (0 no effect, 100 complete control), approximately ten days) was 100. For the same molecule, the “Plant response rating, Velvetleaf” value ([3]; 125 g ai/ha, 0 to 100 scale (0 no effect, 100 complete control)) was 50, the “Plant response rating, Velvetleaf” value ([3]; 500 g ai/ha, 0 to 100 scale, 0 is no effect, 100 is complete control) was 100 and the “Plant response rating, Wheat” value [4, 8] was 10. For the same molecule, the “Plant response rating, Wheat” value [4, 9] was 10, the “Plant response rating, Wheat” value [4, 10] was 15 and the “Plant response rating, Wheat” value [4, 11] was 30. For the same molecule, the “Plant response rating, Wheat” value [4, 12] was 0, the “Plant response rating, Wheat” value [4, 13] was 0 and the “Plant response rating, Wheat” value [4, 14] was 20. The “Plant response rating, Wheat” value [4, 15] was 35, the “Plant response rating, Crabgrass, Large” value [5, 8] was 10 and the “Plant response rating, Crabgrass, Large” value [5, 9] was 15. The “Plant response rating, Crabgrass, Large” value [5, 10] was 25, the “Plant response rating, Crabgrass, Large” value [5, 11] was 35 and the “Plant response rating, Crabgrass, Large” value [5, 12] was 100. The “Plant response rating, Crabgrass, Large” value [5, 13] was 100, the “Plant response rating, Crabgrass, Large” value [5, 14] was 100 and the “Plant response rating, Crabgrass, Large” value [5, 15] was 100. For the same molecule, the “Plant response rating, Blackgrass” value [6, 8] was 15, the “Plant response rating, Blackgrass” value [6, 9] was 20 and the “Plant response rating, Blackgrass” value [6, 10] was 20. The “Plant response rating, Blackgrass” value [6, 11] was 25, the “Plant response rating, Blackgrass” value [6, 12] was 5 and the “Plant response rating, Blackgrass” value [6, 16] was 85. For the same molecule, the “Plant response rating, Blackgrass” value [6, 14] was 100, the “Plant response rating, Blackgrass” value [6, 15] was 100 and the “Plant response rating, Corn” value (corn (Zea mays); [8]) was 10. For the same molecule, the “Plant response rating, Corn” value (corn (Zea mays); [9]) was 15, the “Plant response rating, Corn” value (corn (Zea mays); [10]) was 20 and the “Plant response rating, Corn” value (corn (Zea mays); [11]) was 30. The “Plant response rating, Corn” value (corn (Zea mays); [12]) was 5, the “Plant response rating, Corn” value (corn (Zea mays); [16]) was 30 and the “Plant response rating, Corn” value (corn (Zea mays); [14]) was 70. The “Plant response rating, Corn” value (corn (Zea mays); [15]) was 85, the “Plant response rating, Chickweed” value ([7]; 31 g ai/ha, scale 0 to 100 (0 no effect, 100 complete control)) was 30 and the “Plant response rating, Chickweed” value ([7]; 62 g ai/ha, scale 0 to 100 (0 no effect, 100 complete control)) was 55. The “Plant response rating, Chickweed” value ([7]; 125 g ai/ha, scale 0 to 100, 0 no effect, 100 complete control) was 60 and the “Plant response rating, Chickweed” value ([7]; 250 g ai/ha, scale 0 to 100) was 70.
